# Active and inactive are the calls of the source. The rule behind the calls is not given here.
# Experiments:
# [1] = buffer, pH 7.4
# Description: Lipophilicity, log K of the compound in 50 mM PBS at pH 7.4-10 to 60% methanol mixture by HPLC method
# D(4) dopamine receptor [2] = biological target: T1, D(4) dopamine receptor (Homo sapiens, UniProt P21917); assay: biochemical
# T1 sequence (P21917 whole entry): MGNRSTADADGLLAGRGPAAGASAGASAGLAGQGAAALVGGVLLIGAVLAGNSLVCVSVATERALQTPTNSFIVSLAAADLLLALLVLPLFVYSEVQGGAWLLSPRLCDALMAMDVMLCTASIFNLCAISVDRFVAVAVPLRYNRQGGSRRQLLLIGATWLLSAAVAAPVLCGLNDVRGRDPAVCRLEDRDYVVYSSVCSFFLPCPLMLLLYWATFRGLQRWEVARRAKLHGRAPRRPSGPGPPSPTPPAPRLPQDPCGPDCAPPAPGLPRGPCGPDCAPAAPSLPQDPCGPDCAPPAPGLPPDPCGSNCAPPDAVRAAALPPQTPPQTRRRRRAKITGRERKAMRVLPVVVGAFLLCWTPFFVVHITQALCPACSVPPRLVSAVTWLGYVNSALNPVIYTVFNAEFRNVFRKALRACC
# Description: Displacement of [3H]-YM-09151-2 from human cloned D4 receptor expressed in Sf9 cells after 60 mins by liquid scintillation counting
# [3] = biological target: T2, 5-hydroxytryptamine receptor 1A (Homo sapiens, UniProt P08908); assay: biochemical
# T2 sequence (P08908 whole entry): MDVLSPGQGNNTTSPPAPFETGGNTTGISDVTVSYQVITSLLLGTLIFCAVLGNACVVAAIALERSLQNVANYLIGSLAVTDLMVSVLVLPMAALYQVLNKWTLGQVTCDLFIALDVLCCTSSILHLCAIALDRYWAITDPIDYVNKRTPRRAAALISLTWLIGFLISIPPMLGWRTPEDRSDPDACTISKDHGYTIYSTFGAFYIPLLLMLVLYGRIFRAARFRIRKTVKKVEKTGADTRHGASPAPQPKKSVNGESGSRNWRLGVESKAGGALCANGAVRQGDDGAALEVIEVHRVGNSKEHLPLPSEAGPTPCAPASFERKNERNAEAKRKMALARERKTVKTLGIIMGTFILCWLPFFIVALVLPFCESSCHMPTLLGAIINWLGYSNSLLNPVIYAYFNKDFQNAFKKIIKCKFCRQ
# Description: Displacement of [3H]8-OH-DPAT from human cloned 5-HT1A receptor expressed in CHO cells after 60 mins by liquid scintillation counting
# [4] = biological target: Muscarinic acetylcholine receptor M5 (Homo sapiens) (UniProt P08912); assay: Binding affinity to muscarinic M5 receptor at 10 uM by radioligand binding assay
# [5] = biological target: Muscarinic acetylcholine receptor M4 (Homo sapiens) (UniProt P08173); assay: Binding affinity to muscarinic M4 receptor at 10 uM by radioligand binding assay
# Muscarinic acetylcholine receptor M4 (Homo sapiens), sequence (P08173 whole entry): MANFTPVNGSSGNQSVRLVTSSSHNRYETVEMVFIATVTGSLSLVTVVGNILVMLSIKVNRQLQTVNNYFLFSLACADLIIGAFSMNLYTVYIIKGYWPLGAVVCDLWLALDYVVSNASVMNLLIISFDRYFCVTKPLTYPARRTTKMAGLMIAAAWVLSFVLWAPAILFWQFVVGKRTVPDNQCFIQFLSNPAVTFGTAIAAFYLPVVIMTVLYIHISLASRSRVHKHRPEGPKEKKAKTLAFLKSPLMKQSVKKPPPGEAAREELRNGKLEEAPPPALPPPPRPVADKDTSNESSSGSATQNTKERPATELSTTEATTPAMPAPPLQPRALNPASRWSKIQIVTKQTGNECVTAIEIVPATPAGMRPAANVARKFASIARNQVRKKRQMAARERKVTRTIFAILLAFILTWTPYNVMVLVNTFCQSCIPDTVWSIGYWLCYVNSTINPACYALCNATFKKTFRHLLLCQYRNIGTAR
# [6] = biological target: Muscarinic acetylcholine receptor M3 (Homo sapiens) (UniProt P20309); assay: Binding affinity to muscarinic M3 receptor at 10 uM by radioligand binding assay
# [7] = biological target: Muscarinic acetylcholine receptor M2 (Homo sapiens) (UniProt P08172); assay: Binding affinity to muscarinic M2 receptor at 10 uM by radioligand binding assay
# Muscarinic acetylcholine receptor M2 (Homo sapiens), sequence (P08172 whole entry): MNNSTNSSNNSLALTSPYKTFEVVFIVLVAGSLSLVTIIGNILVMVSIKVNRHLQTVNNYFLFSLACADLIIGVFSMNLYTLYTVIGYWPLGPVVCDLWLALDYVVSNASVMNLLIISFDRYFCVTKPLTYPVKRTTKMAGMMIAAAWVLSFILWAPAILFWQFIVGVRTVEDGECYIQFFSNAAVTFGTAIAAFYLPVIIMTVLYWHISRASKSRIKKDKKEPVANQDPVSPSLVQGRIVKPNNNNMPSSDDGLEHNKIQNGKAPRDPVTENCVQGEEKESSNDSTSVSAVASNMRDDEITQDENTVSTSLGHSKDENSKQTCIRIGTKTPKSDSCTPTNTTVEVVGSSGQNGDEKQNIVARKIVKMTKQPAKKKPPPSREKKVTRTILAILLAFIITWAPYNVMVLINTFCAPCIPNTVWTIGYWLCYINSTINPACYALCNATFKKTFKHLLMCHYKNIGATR
# [8] = biological target: Muscarinic acetylcholine receptor M1 (Homo sapiens) (UniProt P11229); assay: Binding affinity to muscarinic M1 receptor at 10 uM by radioligand binding assay
# [9] = Binding affinity to GABAA receptor at 10 uM by radioligand binding assay
# [10] = Binding affinity to sigma 2 receptor at 10 uM by radioligand binding assay
# [11] = biological target: Sigma non-opioid intracellular receptor 1 (Homo sapiens) (UniProt Q99720); assay: Binding affinity to sigma 1 receptor at 10 uM by radioligand binding assay
# Sigma non-opioid intracellular receptor 1 (Homo sapiens), sequence (Q99720 whole entry): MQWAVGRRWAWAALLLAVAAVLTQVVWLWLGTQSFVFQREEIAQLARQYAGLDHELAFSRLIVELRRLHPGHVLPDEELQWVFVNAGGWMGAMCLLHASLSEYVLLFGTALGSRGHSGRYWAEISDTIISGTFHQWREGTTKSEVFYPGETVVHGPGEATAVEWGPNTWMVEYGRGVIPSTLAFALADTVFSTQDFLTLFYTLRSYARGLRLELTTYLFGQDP
# [12] = biological target: Histamine H3 receptor (Homo sapiens) (UniProt Q9Y5N1); assay: Binding affinity to histamine H3 receptor at 10 uM by radioligand binding assay
# [13] = biological target: Sodium-dependent dopamine transporter (Homo sapiens) (UniProt Q01959); assay: Binding affinity to DAT at 10 uM by radioligand binding assay
# [14] = biological target: D(1B) dopamine receptor (Homo sapiens) (UniProt P21918); assay: Binding affinity to dopamine D5 receptor at 10 uM by radioligand binding assay
# [15] = biological target: D(3) dopamine receptor (Homo sapiens) (UniProt P35462); assay: Binding affinity to dopamine D3 receptor at 10 uM by radioligand binding assay
# [16] = biological target: D(2) dopamine receptor (Homo sapiens) (UniProt P14416); assay: Binding affinity to dopamine D2 receptor at 10 uM by radioligand binding assay
# D(2) dopamine receptor (Homo sapiens), sequence (P14416 whole entry): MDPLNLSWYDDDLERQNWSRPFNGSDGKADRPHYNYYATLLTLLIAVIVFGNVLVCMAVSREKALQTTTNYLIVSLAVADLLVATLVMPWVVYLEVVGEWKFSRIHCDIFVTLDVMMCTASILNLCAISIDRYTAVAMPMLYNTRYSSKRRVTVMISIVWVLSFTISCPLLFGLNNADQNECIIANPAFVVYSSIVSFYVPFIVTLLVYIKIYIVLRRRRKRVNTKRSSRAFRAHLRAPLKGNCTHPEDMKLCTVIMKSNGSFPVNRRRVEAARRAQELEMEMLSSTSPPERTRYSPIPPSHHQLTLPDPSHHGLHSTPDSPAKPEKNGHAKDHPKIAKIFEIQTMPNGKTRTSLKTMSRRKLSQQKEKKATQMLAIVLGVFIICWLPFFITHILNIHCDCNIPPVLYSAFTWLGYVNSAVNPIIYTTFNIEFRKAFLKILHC
# [17] = biological target: D(1A) dopamine receptor (Homo sapiens) (UniProt P21728); assay: Binding affinity to dopamine D1 receptor at 10 uM by radioligand binding assay
# D(1A) dopamine receptor (Homo sapiens), sequence (P21728 whole entry): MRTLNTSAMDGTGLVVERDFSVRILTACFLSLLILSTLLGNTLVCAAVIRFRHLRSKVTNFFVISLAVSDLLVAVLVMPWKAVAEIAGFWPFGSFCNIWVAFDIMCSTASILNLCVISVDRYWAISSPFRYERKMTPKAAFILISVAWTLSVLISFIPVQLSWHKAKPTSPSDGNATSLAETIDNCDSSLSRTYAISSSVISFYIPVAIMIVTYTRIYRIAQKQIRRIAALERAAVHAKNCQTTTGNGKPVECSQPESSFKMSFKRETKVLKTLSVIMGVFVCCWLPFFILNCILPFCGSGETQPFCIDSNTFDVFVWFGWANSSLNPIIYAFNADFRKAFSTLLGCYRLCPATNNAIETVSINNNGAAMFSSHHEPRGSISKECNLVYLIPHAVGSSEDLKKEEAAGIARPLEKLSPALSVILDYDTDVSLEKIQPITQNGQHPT
# [18] = biological target: Beta-3 adrenergic receptor (Homo sapiens) (UniProt P13945); assay: Binding affinity to adrenergic beta3 receptor at 10 uM by radioligand binding assay
# [19] = biological target: Beta-1 adrenergic receptor (Homo sapiens) (UniProt P08588); assay: Binding affinity to adrenergic beta1 receptor at 10 uM by radioligand binding assay
# [20] = biological target: Beta-2 adrenergic receptor (Homo sapiens) (UniProt P07550); assay: Binding affinity to adrenergic beta2 receptor at 10 uM by radioligand binding assay
# Beta-2 adrenergic receptor (Homo sapiens), sequence (P07550 whole entry, looked up): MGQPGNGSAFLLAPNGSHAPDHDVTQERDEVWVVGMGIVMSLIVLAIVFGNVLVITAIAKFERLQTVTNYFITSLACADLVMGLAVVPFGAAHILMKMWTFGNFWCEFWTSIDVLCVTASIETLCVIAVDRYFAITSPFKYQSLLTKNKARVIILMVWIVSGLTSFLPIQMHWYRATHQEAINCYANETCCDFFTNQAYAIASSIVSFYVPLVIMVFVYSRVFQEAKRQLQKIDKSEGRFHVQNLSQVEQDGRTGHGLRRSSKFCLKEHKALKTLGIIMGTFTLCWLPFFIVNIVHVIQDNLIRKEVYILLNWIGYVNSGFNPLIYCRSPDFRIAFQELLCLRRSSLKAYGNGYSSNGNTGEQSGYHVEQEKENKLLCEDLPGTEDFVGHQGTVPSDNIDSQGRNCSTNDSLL
# [21] = biological target: Alpha-2B adrenergic receptor (Homo sapiens) (UniProt P18089); assay: Binding affinity to adrenergic alpha2B receptor at 10 uM by radioligand binding assay
# [22] = biological target: Alpha-2A adrenergic receptor (Homo sapiens) (UniProt P08913); assay: Binding affinity to adrenergic alpha2A receptor at 10 uM by radioligand binding assay
# Alpha-2A adrenergic receptor (Homo sapiens), sequence (P08913 whole entry): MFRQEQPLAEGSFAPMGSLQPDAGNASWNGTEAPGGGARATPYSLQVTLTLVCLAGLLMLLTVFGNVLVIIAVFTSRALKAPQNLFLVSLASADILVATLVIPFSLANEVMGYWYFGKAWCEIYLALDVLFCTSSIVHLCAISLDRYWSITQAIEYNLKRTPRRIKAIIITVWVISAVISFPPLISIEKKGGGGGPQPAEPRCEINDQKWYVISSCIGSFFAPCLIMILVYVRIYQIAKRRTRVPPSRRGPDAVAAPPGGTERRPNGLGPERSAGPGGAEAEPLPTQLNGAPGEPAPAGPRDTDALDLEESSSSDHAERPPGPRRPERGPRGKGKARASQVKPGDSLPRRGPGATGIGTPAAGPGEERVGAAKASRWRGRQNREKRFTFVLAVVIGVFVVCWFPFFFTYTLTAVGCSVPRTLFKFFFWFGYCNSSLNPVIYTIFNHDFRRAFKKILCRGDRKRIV
# [23] = biological target: Alpha-1A adrenergic receptor (Homo sapiens, UniProt P35348); assay: Binding affinity to adrenergic alpha1A receptor by radioligand binding assay; conditions: read-out: Ki(app)
# [24] = biological target: 5-hydroxytryptamine receptor 6 (Homo sapiens) (UniProt P50406); assay: Binding affinity to 5HT6 receptor at 10 uM by radioligand binding assay
# [25] = biological target: 5-hydroxytryptamine receptor 5A (Homo sapiens) (UniProt P47898); assay: Binding affinity to 5HT5A receptor at 10 uM by radioligand binding assay
# [26] = biological target: 5-hydroxytryptamine receptor 3A (Homo sapiens) (UniProt P46098); assay: Binding affinity to 5HT3 receptor at 10 uM by radioligand binding assay
# [27] = biological target: 5-hydroxytryptamine receptor 2C (Homo sapiens) (UniProt P28335); assay: Binding affinity to 5HT2C receptor at 10 uM by radioligand binding assay
# [28] = biological target: 5-hydroxytryptamine receptor 2B (Homo sapiens, UniProt P41595); assay: Binding affinity to 5HT2B receptor by radioligand binding assay; conditions: read-out: Ki(app)
# 5-hydroxytryptamine receptor 2B, sequence (P41595 whole entry): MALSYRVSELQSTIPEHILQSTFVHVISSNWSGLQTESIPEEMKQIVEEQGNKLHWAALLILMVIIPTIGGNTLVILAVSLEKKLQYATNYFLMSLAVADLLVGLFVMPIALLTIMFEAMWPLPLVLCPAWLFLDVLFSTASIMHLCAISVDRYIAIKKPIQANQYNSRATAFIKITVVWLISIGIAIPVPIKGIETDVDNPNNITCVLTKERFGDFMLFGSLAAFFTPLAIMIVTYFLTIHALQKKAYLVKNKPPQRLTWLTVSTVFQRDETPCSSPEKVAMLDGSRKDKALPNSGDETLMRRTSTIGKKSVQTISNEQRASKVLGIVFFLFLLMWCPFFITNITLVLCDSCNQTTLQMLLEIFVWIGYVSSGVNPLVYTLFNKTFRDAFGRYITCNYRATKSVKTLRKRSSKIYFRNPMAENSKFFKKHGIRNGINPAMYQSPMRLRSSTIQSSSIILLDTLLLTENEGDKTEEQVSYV
# [29] = biological target: 5-hydroxytryptamine receptor 2A (Homo sapiens, UniProt P28223); assay: Binding affinity to 5HT2A receptor by radioligand binding assay; conditions: read-out: Ki(app)
# 5-hydroxytryptamine receptor 2A, sequence (P28223 whole entry): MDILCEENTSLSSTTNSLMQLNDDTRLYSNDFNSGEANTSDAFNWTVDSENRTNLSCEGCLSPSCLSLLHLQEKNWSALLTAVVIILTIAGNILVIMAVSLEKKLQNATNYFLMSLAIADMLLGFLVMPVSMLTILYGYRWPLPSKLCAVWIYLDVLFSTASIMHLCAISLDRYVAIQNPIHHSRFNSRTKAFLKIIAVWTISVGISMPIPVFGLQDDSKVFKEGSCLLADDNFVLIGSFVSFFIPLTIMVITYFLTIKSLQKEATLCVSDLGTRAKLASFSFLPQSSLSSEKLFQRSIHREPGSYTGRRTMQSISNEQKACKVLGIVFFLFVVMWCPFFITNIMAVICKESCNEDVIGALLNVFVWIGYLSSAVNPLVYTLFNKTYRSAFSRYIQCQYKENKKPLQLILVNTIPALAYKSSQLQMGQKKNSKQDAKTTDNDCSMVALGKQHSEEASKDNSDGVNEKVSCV
# [30] = biological target: 5-hydroxytryptamine receptor 1D (Homo sapiens) (UniProt P28221); assay: Binding affinity to 5HT1D receptor at 10 uM by radioligand binding assay
# [31] = biological target: 5-hydroxytryptamine receptor 1E (Homo sapiens) (UniProt P28566); assay: Binding affinity to 5HT1E receptor at 10 uM by radioligand binding assay
# [32] = biological target: 5-hydroxytryptamine receptor 1B (Homo sapiens) (UniProt P28222); assay: Binding affinity to 5HT1B receptor at 10 uM by radioligand binding assay
# 5-hydroxytryptamine receptor 1B (Homo sapiens), sequence (P28222 whole entry): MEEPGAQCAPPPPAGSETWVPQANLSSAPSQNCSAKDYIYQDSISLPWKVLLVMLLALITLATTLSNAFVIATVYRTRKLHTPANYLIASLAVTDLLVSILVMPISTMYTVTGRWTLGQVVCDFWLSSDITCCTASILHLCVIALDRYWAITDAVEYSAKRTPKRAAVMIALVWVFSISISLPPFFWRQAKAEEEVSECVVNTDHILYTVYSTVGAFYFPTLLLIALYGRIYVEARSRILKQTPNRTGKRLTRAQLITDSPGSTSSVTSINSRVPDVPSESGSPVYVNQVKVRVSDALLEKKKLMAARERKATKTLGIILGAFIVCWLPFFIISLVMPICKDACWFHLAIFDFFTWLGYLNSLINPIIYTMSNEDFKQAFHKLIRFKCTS
# [33] = biological target: T3, 5-hydroxytryptamine receptor 1A (Rattus norvegicus) (UniProt P19327); assay: Agonist activity of 5-HT1A receptor in Wistar rat dorsal raphe serotonergic neuron assessed as inhibition of firing at 1 nM to 1 uM by electrophysiological test; assay type: functional
# T3 sequence (whole entry): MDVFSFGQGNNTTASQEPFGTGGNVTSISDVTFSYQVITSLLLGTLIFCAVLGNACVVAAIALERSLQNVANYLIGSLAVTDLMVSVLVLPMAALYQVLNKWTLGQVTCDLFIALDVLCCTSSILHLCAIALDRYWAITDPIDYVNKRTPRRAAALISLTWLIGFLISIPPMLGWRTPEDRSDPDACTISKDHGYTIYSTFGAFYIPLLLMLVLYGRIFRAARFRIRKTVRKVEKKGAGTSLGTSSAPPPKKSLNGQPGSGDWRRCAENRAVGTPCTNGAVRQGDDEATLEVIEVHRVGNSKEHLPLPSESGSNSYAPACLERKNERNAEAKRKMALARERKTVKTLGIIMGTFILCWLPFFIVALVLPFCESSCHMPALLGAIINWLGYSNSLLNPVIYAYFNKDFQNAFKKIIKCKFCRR
# [34] = biological target: T3, 5-hydroxytryptamine receptor 1A (Rattus norvegicus); assay: Antagonist activity of 5-HT1A receptor in Wistar rat dorsal raphe serotonergic neuron assessed as reversal of 8-OH-DPAT-induced decrease in firing rate at 100 nM by electrophysiological test; assay type: functional; parameters: scale not given: the % may be the effect or the level left
# [35] = Binding affinity to rat benzodiazepine binding site at 10 uM by radioligand binding assay
# D(4) dopamine receptor [36] = biological target: T1, D(4) dopamine receptor
# Description: Binding affinity to dopamine D4 receptor by radioligand binding assay
# [37] = biological target: Alpha-1B adrenergic receptor (Homo sapiens, UniProt P35368)
# Description: Binding affinity to adrenergic alpha1B receptor by radioligand binding assay
# [38] = biological target: 5-hydroxytryptamine receptor 7 (Homo sapiens, UniProt P34969)
# 5-hydroxytryptamine receptor 7, sequence (P34969 whole entry): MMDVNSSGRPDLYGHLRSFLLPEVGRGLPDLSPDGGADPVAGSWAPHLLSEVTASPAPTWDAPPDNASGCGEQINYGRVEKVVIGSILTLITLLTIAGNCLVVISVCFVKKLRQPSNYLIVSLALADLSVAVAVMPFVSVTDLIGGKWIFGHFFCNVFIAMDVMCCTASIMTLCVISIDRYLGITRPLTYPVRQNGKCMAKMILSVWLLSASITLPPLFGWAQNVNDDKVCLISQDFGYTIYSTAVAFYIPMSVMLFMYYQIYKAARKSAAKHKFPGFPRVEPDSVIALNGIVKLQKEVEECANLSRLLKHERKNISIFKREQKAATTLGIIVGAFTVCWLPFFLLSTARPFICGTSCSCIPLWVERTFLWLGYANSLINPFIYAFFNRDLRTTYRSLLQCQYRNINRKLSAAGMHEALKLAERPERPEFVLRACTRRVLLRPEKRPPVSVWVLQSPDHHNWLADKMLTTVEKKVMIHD
# Description: Binding affinity to 5HT7 receptor by radioligand binding assay
# [39] = biological target: T2, 5-hydroxytryptamine receptor 1A
# Description: Binding affinity to 5HT1A receptor by radioligand binding assay
smiles,measurement,setting,value
O=C(c1cccc2ccccc12)N(CCN1CCN(c2ccccc2)CC1)c1ccccn1,log K,[1],3.27
same,Ki,D(4) dopamine receptor [2],550 nM
same,Ki,[3],35.8 nM
O=C(C1CCCCC1)N(CCN1CCN(c2ccccc2)CC1)c1ccccn1,inhibition,[4],< 50%
same,inhibition,[5],< 50%
same,inhibition,[6],< 50%
same,inhibition,[7],< 50%
same,inhibition,[8],< 50%
same,inhibition,[9],< 50%
same,inhibition,[10],> 50%
same,inhibition,[11],> 50%
same,inhibition,[12],< 50%
same,inhibition,[13],< 50%
same,inhibition,[14],< 50%
same,inhibition,[15],> 50%
same,inhibition,[16],> 50%
same,inhibition,[17],< 50%
same,inhibition,[18],< 50%
same,inhibition,[19],< 50%
same,inhibition,[20],< 50%
same,inhibition,[21],< 50%
same,inhibition,[22],< 50%
same,Ki,[23],584 nM
same,inhibition,[24],< 50%
same,inhibition,[25],< 50%
same,inhibition,[26],< 50%
same,inhibition,[27],< 50%
same,Ki,[28],327 nM
same,Ki,[29],180 nM
same,inhibition,[30],< 50%
same,inhibition,[31],< 50%
same,inhibition,[32],< 50%
same,inhibition,[33],inactive
same,Activity,[34],44%
same,inhibition,[35],< 50%
same,Ki,D(4) dopamine receptor [36],246 nM
same,Ki,[37],1050 nM
same,Ki,[38],198 nM
same,Ki,[39],1.85 nM
same,log K,[1],2.68
same,Ki,D(4) dopamine receptor [2],946 nM
same,Ki,[3],1.21 nM
O=C(c1cccc2ccccc12)N(CCN1CC=C(c2ccccc2)CC1)c1ccccn1,log K,[1],4.07
same,Ki,D(4) dopamine receptor [2],252 nM
same,Ki,[3],14 nM
COc1ccccc1N1CCN(CCN(C(=O)c2cnc3ccccc3n2)c2ccccn2)CC1,log K,[1],2.61
same,Ki,D(4) dopamine receptor [2],15 nM
same,Ki,[3],2.48 nM
O=C(c1cnc2ccccc2n1)N(CCN1CC=C(c2ccccc2)CC1)c1ccccn1,log K,[1],3.33
same,Ki,D(4) dopamine receptor [2],35 nM
same,Ki,[3],8.27 nM
O=C(c1cnc2ccccc2n1)N(CCN1CCN(c2ccccc2)CC1)c1ccccn1,log K,[1],3.06
same,Ki,D(4) dopamine receptor [2],56.8 nM
same,Ki,[3],36.2 nM
COc1ccccc1N1CCN(CCN(C(=O)c2ccc3ccccc3c2)c2ccccn2)CC1,log K,[1],3.57
same,Ki,D(4) dopamine receptor [2],184 nM
same,Ki,[3],1.61 nM
COc1ccccc1N1CCN(CCN(C(=O)c2cccc3ccccc23)c2ccccn2)CC1,log K,[1],3.26
same,Ki,D(4) dopamine receptor [2],69 nM
same,Ki,[3],1.89 nM
O=C(c1ccc2ccccc2c1)N(CCN1CCN(c2ccccc2)CC1)c1ccccn1,log K,[1],3.48
same,Ki,D(4) dopamine receptor [2],807 nM
same,Ki,[3],16.3 nM
O=C(C1CCCCC1)N(CCN1CC=C(c2ccccc2)CC1)c1ccccn1,inhibition,[4],< 50%
same,inhibition,[5],< 50%
same,inhibition,[6],< 50%
same,inhibition,[7],< 50%
same,inhibition,[8],< 50%
same,inhibition,[9],< 50%
same,inhibition,[10],> 50%
same,inhibition,[11],> 50%
same,inhibition,[12],< 50%
same,inhibition,[13],< 50%
same,inhibition,[14],< 50%
same,inhibition,[15],> 50%
same,inhibition,[16],> 50%
same,inhibition,[17],< 50%
same,inhibition,[18],< 50%
same,inhibition,[19],< 50%
same,inhibition,[20],< 50%
same,inhibition,[21],< 50%
same,inhibition,[22],< 50%
same,Ki,[23],39 nM
same,inhibition,[24],< 50%
same,inhibition,[25],< 50%
same,inhibition,[26],< 50%
same,inhibition,[27],< 50%
same,Ki,[28],105 nM
same,Ki,[29],54 nM
same,inhibition,[30],< 50%
same,inhibition,[31],< 50%
same,inhibition,[32],< 50%
same,inhibition,[33],inactive
same,Activity,[34],44%
same,inhibition,[35],< 50%
same,Ki,D(4) dopamine receptor [36],55 nM
same,Ki,[37],296 nM
same,Ki,[38],60 nM
same,Ki,[39],0.69 nM
same,log K,[1],3.84
same,Ki,D(4) dopamine receptor [2],385 nM
same,Ki,[3],0.51 nM
O=C(c1ccc2ccccc2c1)N(CCN1CC=C(c2ccccc2)CC1)c1ccccn1,log K,[1],4.36
same,Ki,D(4) dopamine receptor [2],291 nM
same,Ki,[3],8.36 nM
